Assay results from the supplement of paper PMC11208160.

Test: recombinant barcode read abundance after kanamycin selection (control-corrected) (log10(CPM+1)); higher = more efficient recombination; sequences stand for … in AGTGCAGAGAAAATCGGCCAGTTTTCTCTGCCTGCAGTCCGCATGCCGT…AGATTTATGCAGCGGACTGCCTTTCTCCCAAAGTGATAAACCGGACAGTATCATGGACCGGTTTTCCCGGTAATCCGTATTTGCAAGGTTGGTTTCACT; site = the 11-nt target
Procedure, shortened: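 In a pooled screen in E. coli, targets were paired with target-binding loops of the IS621 bridge RNA. Each oligo carried a promoter, a target, a barcode and the first 104 bridge RNA bases driven by J23119, and was Gibson-cloned into a vector holding the remaining 73 bp and a T7-inducible recombinase before co-electroporation with a donor plasmid. Duplicate platings went onto chloramphenicol/ampicillin LB agar as the control or onto chloramphenicol/ampicillin/kanamycin with 0.1 mM IPTG. Recombination efficiency is the averaged, control-corrected count per million of barcodes at recombinant junctions, given as log10(CPM+1).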
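Note: IS621 recombinase and bridge RNA in Escherichia coli cells.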

Compared with “GAGGTATCTTGGGTTCTAACCTGTTGCTA (site GAGGTATCTTA)”, “TAGGCTACTTGGGTTCTAACCTGTTGCAA (site TAGGCTACTGT)” is higher in “recombinant barcode read abundance (log10)” value: 0.345 for the first, 1.49 for the second.

“AGCGCTTCTTGGGTTCTAACCTGTTGCCT (site AACGCTTCTAG)” and “GAACGATCTTGGGTTCTAACCTGTTGCCT (site GAACCTTCTAG)” are within 0.2 log units of each other in “recombinant barcode read abundance (log10)” value: 0.241 for the first, 0.148 for the second.

“AGAAGTCCTTGGGTTCTAACCTGTTGCTG (site AGAAGTCCTCC)” and “TACCGGACTTGGGTTCTAACCTGTTGCCT (site TACCTGACTAG)” are within 0.2 log units of each other in “recombinant barcode read abundance (log10)” value: 0.0845 for the first, 0.0144 for the second.

First: AGCAATTCTTGGGTTCTAACCTGTTGCCT (site AGAAATTCTAG)
Second: AAGTATCCTTGGGTTCTAACCTGTTGCGG (site AGGGATCCTCC)
The “recombinant barcode read abundance (log10)” value of the first is lower: 0.144 for the first, 0.349 for the second.

Compared with “GTAAATGCTTGGGTTCTAACCTGTTGCCT (site GTAATTGCTAG)”, “CTCTCCGCTTGGGTTCTAACCTGTTGCCT (site CTCTCCGCTAG)” is higher in “recombinant barcode read abundance (log10)” value: 0.0782 for the first, 0.77 for the second.

“GAGCGAGCTTGGGTTCTAACCTGTTGCAT (site GAGAGAGCTAT)” and “GTGAACTCTTGGGTTCTAACCTGTTGCTG (site GTGATCCCTCA)” are within 0.2 log units of each other in “recombinant barcode read abundance (log10)” value: 0.0856 for the first, 0.0703 for the second.

Going from “TCTTAGACTTGGGTTCTAACCTGTTGCTT (site TGTTGGACTAA)” to “CACCAATCTTGGGTTCTAACCTGTTGCCT (site CACCAATCTAG)”, the “recombinant barcode read abundance (log10)” value rises from 0.0581 to 0.525.

Going from “CGGACGACTTGGGTTCTAACCTGTTGCCT (site CGGACGACTAG)” to “TAGCCATCTTGGGTTCTAACCTGTTGCTC (site TAGGCATCTGA)”, the “recombinant barcode read abundance (log10)” value falls from 0.963 to 0.404.

“GCTGGTCCTTGGGTTCTAACCTGTTGCCT (site GCCGGTCCTAG)” and “ATGAGGACTTGGGTTCTAACCTGTTGCCT (site CTGAGGACTAG)” are within 0.2 log units of each other in “recombinant barcode read abundance (log10)” value: 0.431 for the first, 0.362 for the second.

“CGTCTACCTTGGGTTCTAACCTGTTGCCT (site AGTCTACCTAG)” and “TCCTTAGCTTGGGTTCTAACCTGTTGCCG (site TCCTTAGCTCG)” are within 0.2 log units of each other in “recombinant barcode read abundance (log10)” value: 0.0669 for the first, 0.0503 for the second.

“CTTTGATCTTGGGTTCTAACCTGTTGCGT (site CATCGATCTAC)” and “TCGCTAACTTGGGTTCTAACCTGTTGCCT (site GCGCTAACTAG)” are within 0.2 log units of each other in “recombinant barcode read abundance (log10)” value: 0.0142 for the first, 0.145 for the second.

“TAAAAGTCTTGGGTTCTAACCTGTTGCCT (site TAAAAGGCTAG)” and “CCTAAAACTTGGGTTCTAACCTGTTGCCT (site GAACTCTCTTA)” are within 0.2 log units of each other in “recombinant barcode read abundance (log10)” value: 0.0795 for the first, 0.0257 for the second.

Going from “GTTCAGCCTTGGGTTCTAACCTGTTGCCT (site GTCGAGCCTAG)” to “ATACCATCTTGGGTTCTAACCTGTTGCCT (site ATGCCATCTAG)”, the “recombinant barcode read abundance (log10)” value rises from 0.0107 to 0.855.

First: GACCACTCTTGGGTTCTAACCTGTTGCCT (site CACCACTCTAG)
Second: AGGGGAGCTTGGGTTCTAACCTGTTGCGG (site ATGGGAGCTTC)
The “recombinant barcode read abundance (log10)” value of the first is higher: 1.2 for the first, 0.0749 for the second.

“TGGAGTACTTGGGTTCTAACCTGTTGCCT (site TGGCGTACTAG)” and “CTACGTACTTGGGTTCTAACCTGTTGCGT (site CTAAGTTCTAC)” are within 0.2 log units of each other in “recombinant barcode read abundance (log10)” value: 0.0846 for the first, 0.0986 for the second.

Going from “ATCGCTCCTTGGGTTCTAACCTGTTGCCT (site ATCGCTCCTAG)” to “CTTCGGGCTTGGGTTCTAACCTGTTGCAG (site CCTCGGGCTCT)”, the “recombinant barcode read abundance (log10)” value falls from 2.12 to 1.3.

First: AGCAGCTCTTGGGTTCTAACCTGTTGCCT (site AGCAGCTCTAG)
Second: CGCTAGACTTGGGTTCTAACCTGTTGCCT (site CGCTTGACTAG)
The “recombinant barcode read abundance (log10)” value of the first is higher: 1.7 for the first, 0.052 for the second.

First: ATGATATCTTGGGTTCTAACCTGTTGCCT (site ACGATATCTAG)
Second: AGCAGGGCTTGGGTTCTAACCTGTTGCAG (site AGCAGGGCTCT)
The “recombinant barcode read abundance (log10)” value of the first is lower: 0.43 for the first, 2.14 for the second.

First: CAGAGAGCTTGGGTTCTAACCTGTTGCCT (site CAGAGAGCTAG)
Second: TGCCTCTCTTGGGTTCTAACCTGTTGCCT (site GGCTTCTCTAG)
The “recombinant barcode read abundance (log10)” value of the first is higher: 1.2 for the first, 0.0915 for the second.

“CCAGTAGCTTGGGTTCTAACCTGTTGCCT (site CCAGCAGCTAG)” and “ATGAACACTTGGGTTCTAACCTGTTGCTG (site TAATGGCCTTC)” are within 0.2 log units of each other in “recombinant barcode read abundance (log10)” value: 0.161 for the first, 0.0343 for the second.

“CCACCGTCTTGGGTTCTAACCTGTTGCCT (site CCACAGTCTAG)” and “AGCAGGTCTTGGGTTCTAACCTGTTGCCT (site AACAGGTCTAG)” are within 0.2 log units of each other in “recombinant barcode read abundance (log10)” value: 0.171 for the first, 0.109 for the second.

“CCTCAGACTTGGGTTCTAACCTGTTGCGA (site CTTCAGACTTA)” and “TAGGATACTTGGGTTCTAACCTGTTGCAT (site TAGGATACTTT)” are within 0.2 log units of each other in “recombinant barcode read abundance (log10)” value: 0.0629 for the first, 0.0945 for the second.

First: GTAGGGACTTGGGTTCTAACCTGTTGCCT (site GTAGGGACTAG)
Second: GTAGACCCTTGGGTTCTAACCTGTTGCTG (site GTAGACCCTAC)
The “recombinant barcode read abundance (log10)” value of the first is higher: 1.97 for the first, 1.29 for the second.

Going from “GTATCTCCTTGGGTTCTAACCTGTTGCTT (site GTATCTCCTAA)” to “GAGGTGCCTTGGGTTCTAACCTGTTGCTG (site CTAACTACTAC)”, the “recombinant barcode read abundance (log10)” value falls from 0.321 to 0.0482.

First: GTGTCTCCTTGGGTTCTAACCTGTTGCCT (site TTGTCTCCTAG)
Second: AACTTCACTTGGGTTCTAACCTGTTGCCT (site AACTTCCCTAG)
The “recombinant barcode read abundance (log10)” value of the first is higher: 0.22 for the first, 0.013 for the second.

“TAAGATCCTTGGGTTCTAACCTGTTGCCT (site TAGGCTCCTAG)” and “TGTCCACCTTGGGTTCTAACCTGTTGCCT (site GGTCCACCTAG)” are within 0.2 log units of each other in “recombinant barcode read abundance (log10)” value: 0.0611 for the first, 0.165 for the second.

First: AAGGGCGCTTGGGTTCTAACCTGTTGCCT (site AAGGTCGCTAG)
Second: ATGATACCTTGGGTTCTAACCTGTTGCAT (site ATGATACCTAT)
The “recombinant barcode read abundance (log10)” value of the first is lower: 0.261 for the first, 1.71 for the second.

“CTCTCCGCTTGGGTTCTAACCTGTTGCCT (site CTCTCCTCTAG)” and “CATTTCTCTTGGGTTCTAACCTGTTGCCT (site AATTTCTCTAG)” are within 0.2 log units of each other in “recombinant barcode read abundance (log10)” value: 0.0931 for the first, 0.0363 for the second.

Going from “GGACATTCTTGGGTTCTAACCTGTTGCAT (site GGACATTCTAT)” to “TTGGACGCTTGGGTTCTAACCTGTTGCCT (site TTGGACGCTAG)”, the “recombinant barcode read abundance (log10)” value rises from 0.872 to 2.37.

First: AGCCACACTTGGGTTCTAACCTGTTGCCT (site AGCCACCCTAG)
Second: CGCTCATCTTGGGTTCTAACCTGTTGCCT (site CGTTCATCTAG)
The “recombinant barcode read abundance (log10)” value of the first is lower: 0 for the first, 0.211 for the second.

Going from “CGATCCACTTGGGTTCTAACCTGTTGCTG (site CGATACACTCG)” to “GAGGGCCCTTGGGTTCTAACCTGTTGCCT (site AAGGGCCCTAG)”, the “recombinant barcode read abundance (log10)” value rises from 0.16 to 1.38.

“GCAATTGCTTGGGTTCTAACCTGTTGCCT (site AAGTCGTCTTA)” and “TCTGGCCCTTGGGTTCTAACCTGTTGCCT (site CACCCTTCTGA)” are within 0.2 log units of each other in “recombinant barcode read abundance (log10)” value: 0.19 for the first, 0.124 for the second.

“GCTGAGACTTGGGTTCTAACCTGTTGCCG (site GATGAGACTCG)” and “TGCTAAGCTTGGGTTCTAACCTGTTGCTG (site TCCTAAGCTCC)” are within 0.2 log units of each other in “recombinant barcode read abundance (log10)” value: 0.218 for the first, 0.288 for the second.

Going from “TAGAAGGCTTGGGTTCTAACCTGTTGCGT (site TAGAAGGCTAA)” to “GAAATACCTTGGGTTCTAACCTGTTGCGG (site AGCTATGCTAG)”, the “recombinant barcode read abundance (log10)” value falls from 0.445 to 0.131.

“ACTCAGACTTGGGTTCTAACCTGTTGCAC (site GGAGGTCCTCG)” and “TTGAACCCTTGGGTTCTAACCTGTTGCGT (site ATGAACCCTAC)” are within 0.2 log units of each other in “recombinant barcode read abundance (log10)” value: 0.222 for the first, 0.303 for the second.

Going from “AACCAGTCTTGGGTTCTAACCTGTTGCCG (site AACCAGTCTCG)” to “AAGAATACTTGGGTTCTAACCTGTTGCCT (site AAGAATACTAG)”, the “recombinant barcode read abundance (log10)” value rises from 0.898 to 1.16.

Going from “GGCATGTCTTGGGTTCTAACCTGTTGCCT (site GGCATGTCTAG)” to “AGATTCCCTTGGGTTCTAACCTGTTGCCG (site AGATTCCCTCG)”, the “recombinant barcode read abundance (log10)” value rises from 1.15 to 1.67.

First: CGTTCCACTTGGGTTCTAACCTGTTGCCT (site CGTTCTACTAG)
Second: TCCTATCCTTGGGTTCTAACCTGTTGCGA (site TCCTATCCTTC)
The “recombinant barcode read abundance (log10)” value of the first is lower: 0 for the first, 0.513 for the second.

“CTGATGACTTGGGTTCTAACCTGTTGCCT (site CTGATAACTAG)” and “TCTTCCACTTGGGTTCTAACCTGTTGCCT (site ACTTCCACTAG)” are within 0.2 log units of each other in “recombinant barcode read abundance (log10)” value: 0.177 for the first, 0.0827 for the second.

First: CCTCAGTCTTGGGTTCTAACCTGTTGCGA (site CCTCAGTCTTC)
Second: GCCGAGTCTTGGGTTCTAACCTGTTGCTC (site GCCGAGTCTGA)
The “recombinant barcode read abundance (log10)” value of the first is higher: 1.81 for the first, 1.2 for the second.

“CCGCCCGCTTGGGTTCTAACCTGTTGCCT (site CCGCCGGCTAG)” and “TCGAGTCCTTGGGTTCTAACCTGTTGCCT (site TCGAGTTCTAG)” are within 0.2 log units of each other in “recombinant barcode read abundance (log10)” value: 0.083 for the first, 0.0383 for the second.

“AGCGGACCTTGGGTTCTAACCTGTTGCCT (site AGCGGGCCTAG)” and “TGCTGATCTTGGGTTCTAACCTGTTGCCT (site GGCTGATCTAG)” are within 0.2 log units of each other in “recombinant barcode read abundance (log10)” value: 0.188 for the first, 0.158 for the second.

Compared with “TAGCCATCTTGGGTTCTAACCTGTTGCTC (site TAGCCATCTGA)”, “CCGCTACCTTGGGTTCTAACCTGTTGCCT (site CTGCTACCTAG)” is lower in “recombinant barcode read abundance (log10)” value: 0.508 for the first, 0.19 for the second.
